Assay results as given in US11389497B2, “Pharmaceutical composition for treating cancer” (Institute of Advance Sciences, Inc., priority 2019, dated 2022).
Read-outs that look alike come from different tables or passages of the source.

Tests used:
ST88-14 cells [1] = assay: MTS cell viability / proliferation assay; assay type: cell-based, human; settings: OSHP-1 50-300 ng/ml, 0-72 h
Method: FIG. 4 illustrates a report on cell Viability Assays using the MTS Assay Kit (Colorimetric) (ab 197010) Cell proliferation, in accordance with an exemplary embodiment of the present disclosure. As shown, viability and cytotoxicity was assessed on cells. Cells were treated with the appropriate concentrations of OSHP-1 for 24, 48 and 72 h.
Effect of OSHP-1 on Cell proliferation: We performed MTS assays using cells and treated with increasing concentrations of OSHP-1 (50-300 ng/ml) for 0-72 h.

ST88-14 cells [2] = assay: Real-time quantitative PCR of tumorigenic genes in ST88-14 cells; assay type: cell-based, human; settings: 48 h, normalized by GAPDH
Method: Effect of OSHP-1 on the expression of tumorigenic genes. To ascertain whether OSHP-1 decreased the proliferation of ST 88-14 cells, by decreasing the expression of tumorigenic genes, total RNA was isolated from the ST88-14 cells as well as normal Human Schwann cells treated with varying concentrations of OSHP-1 (for 48 h) mentioned above. The RNA was reverse transcribed to cDNA and subjected to quantitative PCR using reverse and forward primers of FAX2, FOXN4, IGF2 TLXI genes (Lee et 2014), and was normalized by the expression of GAPDH (FIG. 5A).

HDAC2 = assay: Immunoblot of nuclear fraction for NuRD components; assay type: cell-based, human; settings: nuclear extract of ST88-14 cells, OSHP-1 50-300 ng/ml, 48 h
Source text: CBP, KAT2A, KAT7 acetyl transferases and CHD4, MTA2, MBD2/3, HDAC2, GATA 2 (NuRD) components and b-actin antibodies.

[3] = system: lysine acetyltransferase 7 (KAT 7); assay: Immunoblot of nuclear fraction for histone acetyl transferases; assay type: cell-based, human; settings: nuclear extract of ST88-14 cells, OSHP-1 50-300 ng/ml, 48 h
[4] = system: human metastatic melanoma; assay: Scratch assay in human metastatic melanoma; assay type: cell-based
ST88-14 cells [5] = assay: Soft Agar colony formation assay (anchorage independent growth); assay type: cell-based, human; settings: colonies counted manually
Source text: FIG. 7A illustrates a report on effect of OSHP-1 on anchorage independent growth or metastasis, in accordance with an exemplary embodiment of the present disclosure: To determine whether OSHP-1 and its individual components can block the anchorage independent growth of ST88-14 cells, and Normal Human Schwann Cells, by subjecting the cells to Soft Agar colony formation assays the absence and presence of (A) OSHP-1.
FIG. 7B illustrates a report on AA, RA, CA and mixture of three, and the colonies were counted manually, in accordance with an exemplary embodiment of the present disclosure.
(§1) Effect of OSHP-1 on anchorage independent growth or metastasis. To determine whether OSHP-1 and its individual components can block the anchorage independent growth of ST-8814 cells, and Normal Human Schwann by subjecting the cells to Soft Agar colony formation assays in the absence and presence of OSHP-1, AA, RA, CA and mixture of three, and the colonies were counted manual. […] Additionally, we also tested whether OSHP-1 and AA, RA, and CA affect the invasiveness of human metastatic melanoma.

ST88-14 cells [6] = assay: Scratch assay in ST88-14 cells; assay type: cell-based, human
Source text: FIG. 7C illustrates a report on a scratch assay protocol performed using ST88-14 cells in the absence or presence of OSHP-1, AA, RA, CA, in accordance with an exemplary embodiment of the present disclosure.
as §1

Compound | viability and proliferation of ST88-14 cells (ST88-14 cells [1]) | FAX2 (PAX2) expression (ST88-14 cells [2]) | IGF2 expression (ST88-14 cells [2]) | TLXI (TLX2) expression (ST88-14 cells [2]) | HDAC2 activity / levels (HDAC2) | lysine acetyl transferase KAT 7 activity / levels [3] | migration of cells in scratch assay [4] | anchorage independent growth (ST88-14 cells [5]) | invasion and metastasis in scratch assay (ST88-14 cells [6]) | invasion and metastasis in scratch assay (ST88-14 cells [6]; listed as RA) | FOXN4 expression (ST88-14 cells [2])
CN1c2c(nc(N)[nH]c2=O)NCC1CNc1ccc(C(=O)N[C@@H](CCC(=O)O)C(=O)O)cc1 (some centres unmarked) [MTHF, 5-methyl tetra hydro folate] | increases the cell proliferation | – | – | – | – | – | – | – | – | – | –
O=C1O[C@H]([C@@H](O)CO)C(O)=C1O [ascorbic acid] | – | down-regulated | down-regulated | down-regulated | increased | decreased | – | – | – | – | –
O=C(/C=C/c1ccc(O)c(O)c1)O[C@H](Cc1ccc(O)c(O)c1)C(=O)O [rosmarinic acid] | – | down-regulated | down-regulated | down-regulated | – | – | the one contributing to this property | responsible for the blocking of anchorage independent growth | decreased metastasis | responsible for the blocking of anchorage independent growth, invasion and metastasis of MPNSTs | –
caffeoylquinic acid | – | down-regulated | down-regulated | – | – | decreases | – | – | – | – | down-regulated
